One test has as its target JAK1 (Homo sapiens (Human), UniProt P23458). The test can be described thus: Jak Biochemical HTRF Assay (JAK1). To be noted: recombinant GST-tagged catalytic domain, [ATP] 31.8 μM, unit not given (compound concentrations tested given in nM). The text has this:
Jak Biochemical HTRF Assay Protocol
Subsequent reagent additions employed an Agilent Bravo.

For a further test, the target named is JAK2 (Homo sapiens (Human), UniProt O60674). In words: Jak Biochemical HTRF Assay (JAK2). To be noted: JAK2 IC50, recombinant GST-tagged catalytic domain, [ATP] 8.5 μM, unit not given (compound concentrations tested given in nM).
Chain of JAK2 (O60674 849-1124): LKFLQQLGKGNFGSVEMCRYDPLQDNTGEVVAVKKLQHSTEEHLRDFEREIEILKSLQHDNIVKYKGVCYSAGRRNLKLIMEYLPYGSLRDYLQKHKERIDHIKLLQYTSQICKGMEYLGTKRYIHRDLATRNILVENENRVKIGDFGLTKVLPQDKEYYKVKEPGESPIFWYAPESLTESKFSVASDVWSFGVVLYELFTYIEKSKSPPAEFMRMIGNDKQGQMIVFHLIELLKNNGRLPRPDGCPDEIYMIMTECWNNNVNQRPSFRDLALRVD

Chain of JAK1 (P23458 875-1153): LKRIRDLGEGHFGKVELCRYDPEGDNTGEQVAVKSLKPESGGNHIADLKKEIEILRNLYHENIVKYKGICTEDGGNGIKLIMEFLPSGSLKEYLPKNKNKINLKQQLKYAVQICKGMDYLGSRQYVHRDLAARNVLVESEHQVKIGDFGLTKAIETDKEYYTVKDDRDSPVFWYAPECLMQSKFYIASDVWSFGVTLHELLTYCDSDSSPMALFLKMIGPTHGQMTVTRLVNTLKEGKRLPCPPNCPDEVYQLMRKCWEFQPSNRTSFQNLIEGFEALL
Procedure for JAK2: The ability of compounds to inhibit the activity of JAK1, JAK2, JAK3, and TYK2 was measured using a recombinant purified GST-tagged catalytic domain for each enzyme (Invitrogen JAK1 #M4290, JAK2 #M4290, JAK3 #M4290, TYK2 #M4290) in an HTRF format biochemical assay. […] Subsequent reagent additions employed an Agilent Bravo. […] After equilibration, 2 μL of 10×ATP in 1× assay buffer was added to initiate the kinase reaction and the plates were shaken and then incubated at room temperature for 120 minutes. […] After normalization to untreated controls, the percent inhibition of the HTRF signal at each compound concentration was calculated. The plot of percent inhibition versus the log of compound concentration was fit with a 4-parameter dose response equation to calculate IC50 values.
Final reaction conditions were:

Turning to `C[S+]([O-])c1cc(Nc2nn([C@H]3COCC[C@@H]3C#N)c3cc[nH]c(=O)c23)ccc1Cl` (mixture of isomers) [Example 3-4, (3R,4S)-3-(3-{[4-chloro-3-((S and R)methylsulfinyl)phenyl]amino}-4-oxo-4,5-dihydro-1H-pyrazolo[4,3-c]pyridin-1-yl)tetrahydro-2H-pyran-4-carbonitrile], the IC50 at JAK1 was determined as 1.75 nM; on JAK2 it was 14.6 nM.
In the same order, the values of `N#C[C@H]1CCOC[C@@H]1n1nc(Nc2ccc(C(N)C(F)(F)F)cc2)c2c(=O)[nH]ccc21` (single isomer, unassigned) [Example 1-8, (3R,4S)-3-(3-((4-((R or S)-1-amino-2,2,2-trifluoroethyl)phenyl)amino)-4-oxo-4,5-dihydro-1H-pyrazolo[4,3-c]pyridin-1-yl)tetrahydro-2H-pyran-4-carbonitrile] are 0.06 nM and 0.22 nM.
Turning to `N#C[C@H]1CCOC[C@@H]1n1nc(Nc2ccc(C(N)C(F)(F)F)cc2)c2c(=O)[nH]ccc21` (single isomer, unassigned) [Example 1-9, (3R,4S)-3-(3-((4-((S or R)-1-amino-2,2,2-trifluoroethyl)phenyl)amino)-4-oxo-4,5-dihydro-1H-pyrazolo[4,3-c]pyridin-1-yl)tetrahydro-2H-pyran-4-carbonitrile], the IC50 came out at 0.09 nM on JAK1 and 0.29 nM at JAK2.
For the molecule `CN(C)C(c1ccc(Nc2nn([C@H]3COCC[C@@H]3C#N)c3cc[nH]c(=O)c23)cc1)C(F)(F)F` (single isomer, unassigned) [Example 1-18, (3R,4S)-3-[3-({4-[(1R, or 1S)-1-(dimethylamino)-2,2,2-trifluoroethyl]phenyl}amino)-4-oxo-4,5-dihydro-1H-pyrazolo[4,3-c]pyridin-1-yl]tetrahydro-2H-pyran-4-carbonitrile], the IC50 on JAK1 is 0.07 nM; on JAK2, 0.13 nM.
For the molecule `CN(C)C(c1ccc(Nc2nn([C@H]3COCC[C@@H]3C#N)c3cc[nH]c(=O)c23)cc1)C(F)(F)F` (single isomer, unassigned) [Example 1-19, (3R,4S)-3-[3-({4-[(1S or 1R)-1-(dimethylamino)-2,2,2-trifluoroethyl]phenyl}amino)-4-oxo-4,5-dihydro-1H-pyrazolo[4,3-c]pyridin-1-yl]tetrahydro-2H-pyran-4-carbonitrile], the IC50 at JAK1 amounted to 0.05 nM; on JAK2, 0.08 nM.
In the same order, the values of `CC(C)(C)S(=O)(=O)c1ccc(Nc2nn([C@H]3COCCC[C@@H]3C#N)c3cc[nH]c(=O)c23)cc1` (single isomer, unassigned) [Example 1-22, (3R,4S or 3S,4R)-3-(3-{[4-(tert-butylsulfonyl)phenyl]amino}-4-oxo-4,5-dihydro-1H-pyrazolo[4,3-c]pyridin-1-yl)oxepane-4-carbonitrile] are 17.3 nM and 21.2 nM.
In the same order, the values of `CC(C)(C)S(=O)(=O)c1ccc(Nc2nn([C@@H]3COCCC[C@H]3C#N)c3cc[nH]c(=O)c23)cc1` (single isomer, unassigned) [Example 1-23, (3S,4R or 3R,4S)-3-(3-{[4-(tert-butylsulfonyl)phenyl]amino}-4-oxo-4,5-dihydro-1H-pyrazolo[4,3-c]pyridin-1-yl)oxepane-4-carbonitrile] are 0.25 nM and 0.69 nM.
For `CC(C)(C)S(=O)(=O)c1ccc(Nc2nn(C3COCCC[C@H]3C#N)c3cc[nH]c(=O)c23)cc1` (single isomer, unassigned) [Example 1-24, (3R,4R or 3S,4S)-3-(3-{[4-(tert-butylsulfonyl)phenyl]amino}-4-oxo-4,5-dihydro-1H-pyrazolo[4,3-c]pyridin-1-yl)oxepane-4-carbonitrile], the 50% inhibitory concentration (IC50) on JAK1 was 12.4 nM; on JAK2 it was 14.7 nM.
On the same counts, the results for `CC(C)(C)S(=O)(=O)c1ccc(Nc2nn([C@@H]3COCCC[C@@H]3C#N)c3cc[nH]c(=O)c23)cc1` (single isomer, unassigned) [Example 1-25, (3S,4S or 3R,4R)-3-(3-{[4-(tert-butylsulfonyl)phenyl]amino}-4-oxo-4,5-dihydro-1H-pyrazolo[4,3-c]pyridin-1-yl)oxepane-4-carbonitrile] are 2.27 nM and 3.43 nM.
Consider `COC(C)(c1ccc(Nc2nn([C@H]3COCC[C@@H]3C#N)c3cc[nH]c(=O)c23)cc1)C(F)(F)F` (single isomer, unassigned) [Example 1-33, (3R,4S)-3-(4-oxo-3-((4-((S or R)-1,1,1-trifluoro-2-methoxypropan-2-yl)phenyl)amino)-4,5-dihydro-1H-pyrazolo[4,3-c]pyridin-1-yl)tetrahydro-2H-pyran-4-carbonitrile], for which the IC50 at JAK1 amounted to 0.04 nM; on JAK2, 0.09 nM.
Consider `CC1c2cc(Nc3nn([C@H]4COCC[C@@H]4C#N)c4cc[nH]c(=O)c34)ccc2S(=O)(=O)N1C` (single isomer, unassigned) [Example 1-34, (3R,4S)-3-(3-(((R or S)-2,3-dimethyl-1,1-dioxido-2,3-dihydrobenzo[d]isothiazol-5-yl)amino)-4-oxo-4,5-dihydro-1H-pyrazolo[4,3-c]pyridin-1-yl)tetrahydro-2H-pyran-4-carbonitrile], for which the IC50 stood at 0.03 nM at JAK1 and 1.18 nM on JAK2.
On the same counts, the results for `CN1CCN(C(c2ccc(Nc3nn([C@H]4COCC[C@@H]4C#N)c4cc[nH]c(=O)c34)cc2)C(F)(F)F)CC1` (single isomer, unassigned) [Example 1-36, (3R,4S)-3-[4-oxo-3-({4-[(1R or 1S)-2,2,2-trifluoro-1-(4-methylpiperazin-1-yl)ethyl]phenyl}amino)-4,5-dihydro-1H-pyrazolo[4,3-c]pyridin-1-yl]tetrahydro-2H-pyran-4-carbonitrile] are 0.24 nM and 0.27 nM.
In the same order, the values of `CN1CCN(C(c2ccc(Nc3nn([C@H]4COCC[C@@H]4C#N)c4cc[nH]c(=O)c34)cc2)C(F)(F)F)CC1` (single isomer, unassigned) [Example 1-37, (3R,4S)-3-[4-oxo-3-({4-[(1S or 1R)-2,2,2-trifluoro-1-(4-methylpiperazin-1-yl)ethyl]phenyl}amino)-4,5-dihydro-1H-pyrazolo[4,3-c]pyridin-1-yl]tetrahydro-2H-pyran-4-carbonitrile] are 0.22 nM and 0.33 nM.
Take `N#C[C@H]1CCOC[C@@H]1n1nc(Nc2ccc(C(N3CCNCC3)C(F)(F)F)cc2)c2c(=O)[nH]ccc21` (single isomer, unassigned) [Example 1-38, (3R,4S)-3-[4-oxo-3-({4-[(1R or 1S)-2,2,2-trifluoro-1-piperazin-1-ylethyl]phenyl}amino)-4,5-dihydro-1H-pyrazolo[4,3-c]pyridin-1-yl]tetrahydro-2H-pyran-4-carbonitrile]: the IC50 at JAK1 amounted to 0.09 nM; on JAK2 it was 0.13 nM.
In the same order, the values of `N#C[C@H]1CCOC[C@@H]1n1nc(Nc2ccc(C(N3CCNCC3)C(F)(F)F)cc2)c2c(=O)[nH]ccc21` (single isomer, unassigned) [Example 1-39, (3R,4S)-3-[4-oxo-3-({4-[(1S or 1R)-2,2,2-trifluoro-1-piperazin-1-ylethyl]phenyl}amino)-4,5-dihydro-1H-pyrazolo[4,5-c]pyridin-1-yl]tetrahydro-2H-pyran-4-carbonitrile] are 0.13 nM and 0.17 nM.
For `N#C[C@H]1CCOCC1n1nc(Nc2ccc(C3(C(F)(F)F)CCNC3)cc2)c2c(=O)[nH]ccc21` (single isomer, unassigned) [Example 1-99, (3R,4S)-3-(4-oxo-3-((4-((S or R)-3-(trifluoromethyl)pyrrolidin-3-yl)phenyl)amino)-4,5-dihydro-1H-pyrazolo[4,3-c]pyridin-1-yl)tetrahydro-2H-pyran-4-carbonitrile], at JAK1, the IC50 came to 0.07 nM.
Still for that read-out and setting: under `CC1(C)CC2(c3ccc(Nc4nn([C@H]5COCC[C@@H]5C#N)c5cc[nH]c(=O)c45)cc3)CCC1C(=O)O2` (stereo partly drawn) [Example 1-20, (3R,4S)-3-(3-{[4-(5,5-dimethyl-3-oxo-2-oxabicyclo[2.2.2]oct-1-yl)phenyl]amino}-4-oxo-4,5-dihydro-1H-pyrazolo[4,3-c]pyridin-1-yl)tetrahydro-2H-pyran-4-carbonitrile] stands 0.07 nM; under `CC1(C)CC2(c3ccc(Nc4nn([C@H]5COCC[C@@H]5C#N)c5cc[nH]c(=O)c45)cc3)CCC1C(=O)O2` (stereo partly drawn) [Example 1-21, (3R,4S)-3-(3-{[4-(5,5-dimethyl-3-oxo-2-oxabicyclo[2.2.2]oct-1-yl)phenyl]amino}-4-oxo-4,5-dihydro-1H-pyrazolo[4,3-c]pyridin-1-yl)tetrahydro-2H-pyran-4-carbonitrile], 0.08 nM; under `CC(C)(N)c1ccc(Nc2nn([C@H]3COCC[C@@H]3C#N)c3cc[nH]c(=O)c23)cc1` [Example 1-60, (3R,4S)-3-(3-{[4-(1-amino-1-methylethyl)phenyl]amino}-4-oxo-4,5-dihydro-1H-pyrazolo[4,3-c]pyridin-1-yl)tetrahydro-2H-pyran-4-carbonitrile], 0.21 nM.
The same measure, in the same setting: under `CC(C)C(C)(C)S(=O)(=O)c1ccc(Nc2nn([C@H]3COCC[C@@H]3C#N)c3cc[nH]c(=O)c23)cc1` [Example 1-66, (3R,4S)-3-[4-oxo-3-({4-[(1,1,2-trimethylpropyl)sulfonyl]phenyl}amino)-4,5-dihydro-1H-pyrazolo[4,3-c]pyridin-1-yl]tetrahydro-2H-pyran-4-carbonitrile] stands 0.07 nM.
Still for that read-out and setting: under `CC1CN(S(=O)(=O)c2ccc(Nc3nn([C@H]4COCC[C@@H]4C#N)c4cc[nH]c(=O)c34)cc2)C1` [Example 1-70, (3R,4S)-3-[3-({4-[(3-methylazetidin-1-yl)sulfonyl]phenyl}amino)-4-oxo-4,5-dihydro-1H-pyrazolo[4,3-c]pyridin-1-yl]tetrahydro-2H-pyran-4-carbonitrile] stands 0.15 nM.

(Values after US9957265B2, “N-(2-cyano heterocyclyl) pyrazolo pyridones as janus kinase inhibitors” (Merck Sharp & Dohme Corp., priority 2013, dated 2018).)
